Consider five molecules from patent US11851391B2, “Antifungal compounds and methods of forming the same” (University of Kentucky Research Foundation, priority 2018, dated 2023).

The subject of data set [1] is human bronchus normal cell line BEAS-2B. The data set is described as follows: In vitro cytotoxicity assay (resazurin). It is filed as cell-based. As to conditions: 24 h. The method, then:
The human bronchus normal cell line BEAS-2B (ATCC CRL-9609) and the human lung carcinoma cell line A549 (ATCC CRL-185) were kind gifts from the laboratories of Dr. Matthew S. Gentry (University of Kentucky, Lexington, KY, USA) and Dr. David K. Orren (University of Kentucky, Lexington, KY, USA). The mammalian cells were grown in Dulbecco's Modified Eagle's Medium (DMEM) (from ATCC) with 10% fetal bovine serum (FBS) (from ATCC) and 1% Pen/Strep (from ATCC). Cell lines were cultured at 37° C. with 5% CO2 and passaged by trypsinization with 0.05% trypsin:0.53 mM EDTA (from ATCC). Cell confluency was determined by using a Nikon Eclipse TS100 microscope (Minato, Tokyo, Japan).
Cytotoxicity assays were performed as previously described with slight modifications. A549 and BEAS-2B cells were first thawed from stocks and grown. The confluent cells were transferred to a 96-well microtiter plates at density of 3000 cells/well. The 96-well plates were incubated at 37° C. with 5% CO2 overnight. […] The stock solutions were serially diluted in 1.5 mL eppendorf tubes to achieve concentrations of 31-0.12 mg/mL. 1 μL of these 1000× compound stock solutions was then added to 999 μL of DMEM medium in 1.5 mL eppendorf tubes to obtain final concentrations of 31-0.12 μg/mL. […] The 96-well plates were further incubated for 24 h at 37° C. with 5% CO2. To evaluate cell survival, each well was treated with 10 μL (25 mg/L) of resazurin sodium salt (Sigma-Aldrich, St. Louis, MO, USA) and incubated for another 6 h. Metabolically active cells can convert resazurin to the highly fluorescent dye, resorufin, and be detected at A560 excitation and A590 emission using a SpectraMax M5 plate reader (Molecular Devices, San Jose, CA, USA). […] The percentage survival rates were calculated by using the following formula: % cell survival=[(fluorescence of sample)−(fluorescence of background)]×100/[(fluorescence of negative control)−(fluorescence of background)]. Experiments were done in duplicate.

The test system of data set [2] is C. albicans ATCC 10231 (strain A) biofilms. The data set is described as follows: Biofilm disruption assay (XTT reduction). It is filed as cell-based, Candida albicans. As for the experimental part: (§1) Biofilms are complex communities of one or more species of microorganisms encased in extracellular polymeric substances and attached to not only a solid surface but also to each other. Because of their complex, matrix-like nature, antifungal agents are often unable to reach the pathogens embedded in these networks. […] This increase reflected some resistance of Candida biofilms against the bishydrazone 17c.
(§2) Biofilm disruption assays were performed to assess the effectiveness of compound 17c against sessile yeast cells for two representative yeast strains, C. albicans ATCC 10231 (strain A) and C. albicans ATCC 64124 (strain B). VOR was used as a positive control. Biofilm assays were performed in 96-well plates using XTT [2,3-bis(2-methoxy-4-nitro-5-sulfophenyl)-2H-tetrazolium-5-carboxanilide] to measure the viability of the biofilm as previously described. An overnight culture of the yeast cells was grown at 35° C. in YPD medium with shaking at 200 rpm. The overnight culture was diluted in RPMI 1640 medium to an OD600 between 0.12 and 0.15 to make a working stock. The working stock was transferred to 96-well plates in 100 μL aliquots, leaving one column empty for the sterile controls. […] 80 μL of liquid from each well was transferred to new plates, which were then read for absorbance at 450 nm with a SpectraMax M5 plate reader (Molecular Devices, Sunnyvale, CA, USA). […]

For data set [3], the system named is C. albicans ATCC 64124 (strain B) biofilms. The data set is described as follows: Biofilm disruption assay (XTT reduction). It counts as cell-based, Candida albicans. The method, then: as §1, §2
Data set [4] concerns C. albicans ATCC 10231 (strain A). The data set is described as follows: Time-kill assay. It counts as cell-based, Candida albicans. The source says: (§3) To determine the fungistatic or fungicidal nature of the compounds, time-kill assays were next performed over a 24-hour period with 4,4′-bis((E)-1-(2-(4-fluorophenyl)hydrazono)ethyl)-1,1′-biphenyl (17c).
(§4) Time-kill assays were used to assess the inhibitory efficiency of compound 17c against two yeast strains, C. albicans ATCC 10231 (strain A) and C. albicans ATCC 64124 (strain B). The protocol for time-kill assays followed methods previously described with minor modifications. Yeast cultures were grown overnight in YPD medium at 35° C. with shaking at 200 rpm. A working stock of fungal cells was made by diluting cultures in RPMI 1640 medium to an OD600 of 0.125 (˜1×10^6 CFU/mL). From the working stock, 100 μL of cells were added to 4.9 mL of RPMI 1640 medium in sterile culture tubes, making the starting fungal cell concentration […]. Compounds were then added to the fungal cells. […] The treated fungal cultures were incubated at 35° C. with 200 rpm shaking for 24 h. Samples were aliquoted from the different treatments at regular time points (0, 3, 6, 9, 12, and 24 h) and plated in duplicate. For each time point, cultures were vortexed, 100 μL of culture were aspirated, and 10-fold serial dilutions were made in sterile ddH2O. From the appropriate dilutions, 100 μL of fungal suspension was spread onto PDA plates and incubated at 35° C. for 48 h before colony were counted. At 24 h, 50 μL of 1 mM resazurin in PBS was added to the treatments and incubated at 35° C. with 200 rpm shaking for 2 h in the dark for visual inspection (FIGS. 5A-D). Experiments were performed in duplicate.

For data set [5], the system named is C. albicans ATCC 64124 (strain B). Nature of the data set: Time-kill assay. It is filed as cell-based, Candida albicans.
Description: as §3, §4

“Also recorded” adds a separate entry of the source.

On to `Fc1ccc(N/N=C/c2ccc(-c3cccc(/C=N/Nc4ccc(F)cc4)c3)cc2)cc1` [Compound 17a], for which the “toxicity (in words)” value in data set [1] (BEAS-2B at 31 μg/mL) is recorded as “non-toxic”.
In the case of `Fc1ccc(N/N=C/c2ccc(-c3cccc(/C=N/Nc4ccc(F)cc4F)c3)cc2)c(F)c1` [Compound 20a], the “toxicity (in words)” value in data set [1] (BEAS-2B at 15.5 μg/mL) is on record as “non-toxic”.
As to `COc1ccc(N/N=C/c2ccc(-c3ccc(/C=N/Nc4ccc(OC)cc4)cc3)cc2)cc1` [Compound 15b], the “toxicity (in words)” value in data set [1] (BEAS-2B at 15.5 μg/mL) is recorded as “non-toxic”.
Turning to `COc1ccc(N/N=C/c2ccc(-c3cccc(/C=N/Nc4ccc(OC)cc4)c3)cc2)cc1` [Compound 15a], the “toxicity (in words)” value in data set [1] (BEAS-2B at 15.5 μg/mL) was “non-toxic”.
As to `C/C(=N\Nc1ccc(F)cc1)c1ccc(-c2ccc(/C(C)=N/Nc3ccc(F)cc3)cc2)cc1` [Compound 17c, 4,4′-bis((E)-1-(2-(4-fluorophenyl)hydrazono)ethyl)-1,1′-biphenyl], the figures for the “increase of SMIC values compared to planktonic MIC value” in data set [2] and in data set [3] were 4- to 16 fold and 4- to 8 fold, respectively. The “toxicity (in words)” value in data set [1] (BEAS-2B at 15.5 μg/mL) was “non-toxic”. Besides, the “reduction in fungal growth compared with VOR” value in data set [4] (17c at one-half of the MIC value versus VOR at the MIC value) and in data set [5] (17c at equal to or one-half of the MIC value versus VOR at the MIC value) was “greater reduction in fungal growth” in each case. The “fungistatic or fungicidal nature” value in data set [4] (24-hour period, 0.5x, 1x, 2x MIC) is “fungistatic; also recorded: more fungistatic than the control drug VOR”; in data set [5] (24-hour period, up to twice its MIC value), “fungistatic; also recorded: more fungistatic than the control drug VOR”.
